Here are results for two molecules from patent publication US7935708B2, “Dihydropyrazolopyrimidinone derivatives” (MSD K.K., priority 2006, dated 2011).

In test [1] the test system is Cdc2 (Cdk1) tyrosine 15 phosphorylation in NCI-H1299 cells. In words: Cdc2 (Cdk1) tyrosine 15-phosphorylation-inhibitory effect in camptothecin-treated NCI-H1299 cells (ELISA). It is filed as cell-based. The settings on record: Homo sapiens, camptothecin 200 nM 16 hours, then test compound with nocodazole 8 hours, read-out: Cdc2-Y15 Phosphorylation-Inhibitory Effect (H1299, + camptothecin) (EC50). From the text: Pharmaceutical Text 2 (Method of Determining Drug Potency in Cells (Cdc2 (Cdk1) Tyrosine 15-Phosphorylation-Inhibitory Effect))
Fetal bovine serum (FBS) was obtained from Morgate; media RPMI1640 and DMEM were from Invitrogen; camptothecin was from Sigma; gemcitabine was from Nippon Eli Lilly; nocodazole and protease inhibitor cocktail were from Sigma; rabbit anti-Cdc2 antibody and mouse anti-Cdc2 antibody were from Santa Cruz Biotechnology; rabbit anti-tyrosine 15-phosphorylated Cdc2 antibody and horseradish peroxidase-labeled anti-mouse IgG antibody were from Cell Signaling Technology; sure blue reserve TMB peroxidase substrate was from Kirkegaard and Perry Laboratories.
Human non-small cell lung cancer cells (NCI-H1299) and human colon cancer cells (WiDr) were obtained from American Type Culture Collection (ATCC).
(§1) c) Method of Effect Determination:
In the method of using NCI-H1299 cells, the cells were suspended in RPMI1640 containing 10% FBS, and the cell suspension was applied to a 96-well Nunclondelta-processed plastic plate (bought from Nunc), in an amount of 2000 cells/100 μL/well, in which the cells were incubated overnight in 5% CO2-95% air at 37° C. Camptothecin was dissolved in dimethylsulfoxide (DMSO), and diluted with RPMI1640 containing 10% FBS, and then this was applied to the plate on which the cells had been previously sowed, in an amount of 50 μL/well in such a manner that the final concentration of camptothecin could be 200 nM. Then, the cells were incubated for 16 hours at 37° C. in 5% CO2-95% air. The test compound was stepwise diluted with DMSO, then diluted with 4000 nM nocodazole-containing RPMI1640 containing 10% FBS, and applied to the plate on which the camptothecin-treated cells had been sowed, in an amount of 50 μL/well. The cells were incubated for 8 hours at 37° C. in 5% CO2-95% air, then the medium was removed, and a cytolytic buffer was added to the plate in an amount of 100 μL/well, shaken at 4° C. for 2 hours, then frozen at −80° C., and melted to give a cell solution. Cdc2 and tyrosine 15-phosphorylated Cdc2 in the cell solution were determined through enzyme-linked immunosorbent assay (ELISA), and the ratio of tyrosine 15-phosphorylated Cdc2 to Cdc2 was calculated to obtain the 50% phosphorylation-inhibitory concentration of the test compound to the cells (EC50, nM). The cytolytic buffer used herein is an aqueous solution containing 20 mM Hepes (pH 7.5), 150 mM sodium chloride, 1 mM disodium ethylenediaminetetraacetate, 0.1% polyoxyethylene (10) octylphenyl ether, 1% protease inhibitor cocktail, 1 mM dithiothreitol, 2 mM sodium orthovanadate, 10 mM sodium fluoride and 10 mM glycerol diphosphate. Cdc2 was determined through ELISA as follows: A rabbit anti-Cdc2 antibody solution, which had been diluted 200-fold with 50 mM carbonate-bicarbonate buffer (pH 9.6), was applied to a 96-well maxisorpimmuno plate (bought from Nunc), in an amount of 50 μL/well, and statically kept overnight at 4° C. so as to fix the antibody on the plate. Next, this was washed three times with phosphate-buffered saline (PBS), and 5% bovine serum albumin-containing PBS (5% BSA/PBS) was added thereto in an amount of 300 μL/well, and statically kept at room temperature for 2 hours, and then again washed three times with PBS. A mouse anti-Cdc2 antibody solution that had been diluted 100-fold with 0.05% polyoxyethylene sorbitan monolaurate and 1% BSA-containing Tris-HCl-buffered saline (1% BSA/TBS-T) was added to it in an amount of 50 μL/well, and the cell solution was added thereto in an amount of 5 μL/well and statically kept overnight at 4° C. Next, this was washed three times with 0.05% polyoxyethylene sorbitan monolaurate and 0.1% BSA-containing Tris-HCl-buffered saline (0.1% BSA/TBS-T), and then a horseradish peroxidase-labeled anti-mouse IgG antibody solution that had been diluted 2000-fold with 1% BSA/TBS-T was added thereto in an amount of 70 μL/well, and statically kept at room temperature for 3 hours. […]
Background: In an ELISA, binding on a coated surface is turned into a signal by an enzyme label.

In test [2] the test system is Human colon cancer cells (WiDr). The experiment in a line: Checkpoint escape effect in gemcitabine-treated WiDr cells (phosphorylated histone H3-positive cells). It is filed as cell-based. As to conditions: gemcitabine 100 nM 24 hours, then test compound with nocodazole 8 hours.
Text: Pharmaceutical Text 3 (Method of Determining Drug Potency in Cells (Checkpoint-Removing Effect))
Fetal bovine serum (FBS) was obtained from Morgate; DMEM was from Invitrogen; gemcitabine was from Nippon Eli Lilly; nocodazole and 4′,6-diamidino-2-phenylindole were from Sigma; rabbit anti-phosphorylated histone H3 antibody was from Upstate; and fluorescence-labeled (Alexa Fluor 488) anti-rabbit IgG antibody was from Molecular Probe.
Human colon cancer cells (WiDr) were obtained from American Type Culture Collection (ATCC).
as §1
The cells were suspended in DMEM containing 10% FBS, and the cell suspension was applied to a poly-D-lysine-coated 96-well plastic plate (bought from Becton Dickinson) in an amount of 2000 cells/100 μL/well, in which the cells were incubated overnight in 5% CO2-95% air at 37° C. Gemcitabine was dissolved in phosphate-buffered saline (PBS), and diluted with DMEM containing 10% FBS, and then this was applied to the plate on which the cells had been previously sowed, in an amount of 50 μL/well in such a manner that the final concentration of gemcitabine could be 100 nM. Then, the cells were incubated for 24 hours at 37° C. in 5% CO2-95% air. The test compound was stepwise diluted with dimethylsulfoxide, then diluted with 1200 nM nocodazole-containing DMEM containing 10% FBS, and applied to the plate on which the gemcitabine-treated cells had been sowed, in an amount of 50 μL/well. […] Next, this was washed with PBS, and a solution containing 4′,6-diamidino-2-phenylindole that had been diluted with 1% BSA/PBS to have a concentration 10 μg/mL and a fluorescence-labeled (Alexa Fluor 488) anti-rabbit IgG antibody that had been diluted 250-fold was added to it in an amount 50 μL/well, and reacted in a dark place at room temperature for 60 minutes. Finally, this was washed with PBS, and its fluorescence intensity was determined to calculate the ratio of the phosphorylated histone H3-positive cells (cells that had been in a cell division cycle through removal of checkpoint). […]

Test [3] has as its system Human colon cancer cells WiDr. In words: Tumor growth-inhibitory effect, WiDr implanted subcutaneously in nude rats. It is filed as in vivo, F344/N Jcl-mu nude rats. As to conditions: statement on Table 5. The method, then:
Pharmaceutical Test 4 (Tumor Growth-Inhibitory Effect)
Human colon cancer cells WiDr (gotten from ATCC) were implanted into the subcutaneous area of the back of F344/N Jcl-mu nude rats. Eight days after the implantation, gemcitabine (50 mg/kg, Gemzar injection, Eli-Lilly) was intravenously administered to them; and after 24 hours, a test compound was dissolved in a solvent (5% glucose) and given to them through continuous intravenous injection for 8 hours. The tumor volume (0.5×(major diameter)×(minor diameter)^2) was determined on day 0, 3, 6, 10 and 13. Day 0 means the day on which gemcitabine was administered. The relative tumor volume is a relative value, as calculated on the basis of the tumor volume of 1 on day 0. The tumor growth percentage (% T/C) was obtained according to the following formula:
When the tumor volume change from day 0 in the group subjected to test compound administration is more than 0 (>0): % T/C=[(tumor volume change in the test compounds on day 3, 6, 10, 13)/(tumor volume change in the control on day 3, 6, 10, 13)]×100. When the tumor volume change from day 0 in the group subjected to test compound administration is less than 0 (<0): % T/C=[(tumor volume change in the test compounds on day 3, 6, 10, 13)/(tumor volume […])]×100.

As a reminder, the EC50 is the concentration at which the effect is half-maximal. Regarding `CC(C)n1c(=O)c2cnc(Nc3ccc(C4CCN(C)CC4)cc3)nc2n1-c1cccc(C(C)(C)O)n1` [Example 147, 1-[6-(1-hydroxy-1-methylethyl)pyridin-2-yl]-2-isopropyl-6-{[4-(1-methylpiperidin-4-yl)phenyl]amino}-1,2-dihydro-3H-pyrazolo[3,4-d]pyrimidin-3-one], the concentration for a half-maximal effect (EC50) in test [1] was 100 nM; in test [2], 110 nM.

As for `Nc1ccn([C@@H]2O[C@H](CO)[C@@H](O)C2(F)F)c(=O)n1` [Gemcitabine, gemcitabine], the “tumor growth percentage (in words)” value in test [3] is on record as “reduced the tumor growth percentage”.
